Measured values reported in PubChem BioAssay (NCI).
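Dose response: 5 concentrations. Exposure: 48 h. Format: 96-well plates. Endpoint: linear interpolation; highest concentration if not reached. TGI: total growth inhibition.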

Legend:
Test in all cases: growth of human tumour cells (NCI), 48 h
CCRF-CEM leukemia = test system: CCRF-CEM leukemia
SF-539 CNS = test system: SF-539 CNS
SNB-19 CNS = test system: SNB-19 CNS
HOP-92 NSCLC = test system: HOP-92 NSCLC
HL-60(TB) leukemia = test system: HL-60(TB) leukemia
CAKI-1 renal = test system: CAKI-1 renal
NCI-H522 lung = test system: NCI-H522 lung
M14 melanoma = test system: M14 melanoma
HCC-2998 colon = test system: HCC-2998 colon
COLO 205 colon = test system: COLO 205 colon
ACHN renal = test system: ACHN renal
UACC-62 melanoma = test system: UACC-62 melanoma
NCI-H226 lung = test system: NCI-H226 lung
SF-295 CNS = test system: SF-295 CNS
RPMI-8226 leukemia = test system: RPMI-8226 leukemia
LOX IMVI melanoma = test system: LOX IMVI melanoma
A549 NSCLC = test system: A549 NSCLC
A498 renal = test system: A498 renal

Row | SMILES | TGI (CCRF-CEM leukemia) | TGI (SF-539 CNS) | TGI (SNB-19 CNS) | TGI (HOP-92 NSCLC) | TGI (HL-60(TB) leukemia) | TGI (CAKI-1 renal) | TGI (NCI-H522 lung) | TGI (M14 melanoma) | TGI (HCC-2998 colon) | TGI (COLO 205 colon) | TGI (ACHN renal) | TGI (UACC-62 melanoma) | TGI (NCI-H226 lung) | TGI (SF-295 CNS) | TGI (RPMI-8226 leukemia) | TGI (LOX IMVI melanoma) | TGI (A549 NSCLC) | TGI (A498 renal)
1 | CC(C)C1SCc2nc3ccccc3n21 (configuration not stated) | > 100 µM | > 100 µM | > 100 µM | > 100 µM | > 100 µM | > 100 µM | > 100 µM | > 100 µM | > 100 µM | 26.8 µM | > 100 µM | > 100 µM | 0.96 µM | > 100 µM | > 100 µM | > 100 µM | > 100 µM | 83.3 µM
2 | COc1ccc(C2=Nn3c(nc4sc(-c5ccccc5)cc4c3=O)SC2)cc1 | > 100 µM | > 100 µM | – | > 100 µM | > 100 µM | > 100 µM | > 100 µM | – | > 100 µM | > 100 µM | > 100 µM | > 100 µM | > 100 µM | > 100 µM | > 100 µM | > 100 µM | > 100 µM | > 100 µM
3 | COc1cc2nc(-c3ccccc3F)[nH]c(=O)c2cc1OC | > 100 µM | – | > 100 µM | > 100 µM | > 100 µM | > 100 µM | > 100 µM | > 100 µM | > 100 µM | > 100 µM | > 100 µM | > 100 µM | > 100 µM | > 100 µM | > 100 µM | > 100 µM | > 100 µM | > 100 µM
4 | COC(=O)c1c2c(c(-c3ccccc3)c3c1-c1nc(Cl)ccc1CC3)CCc1ccc(Cl)nc1-2 | > 100 µM | > 100 µM | > 100 µM | > 100 µM | > 100 µM | > 100 µM | > 100 µM | > 100 µM | > 100 µM | > 100 µM | > 100 µM | > 100 µM | > 100 µM | > 100 µM | > 100 µM | > 100 µM | > 100 µM | > 100 µM
5 | NC1=CN(Cc2ccccc2)C2=N/C(=C\c3ccccc3)C(=O)N12 | > 100 µM | > 100 µM | > 100 µM | > 100 µM | > 100 µM | > 100 µM | > 100 µM | > 100 µM | > 100 µM | > 100 µM | > 100 µM | > 100 µM | > 100 µM | > 100 µM | > 100 µM | > 100 µM | > 100 µM | > 100 µM
6 | O=C1/C(=C/c2ccccc2)N=C(c2ccccc2)N1C1Nc2cc3c(cc2S1)NC(N1C(=O)/C(=C/c2ccccc2)N=C1c1ccccc1)S3 (configuration not stated) | > 100 µM | > 100 µM | – | 8.27 µM | > 100 µM | > 100 µM | 0.0623 µM | > 100 µM | 4.76 µM | – | > 100 µM | – | > 100 µM | > 100 µM | 68.4 µM | > 100 µM | – | 68 µM
7 | Cn1c(=O)c2c(nc(N)n2C2OC(CO)C(O)C2O)n(C)c1=O (configuration not stated) | > 100 µM | > 100 µM | > 100 µM | > 100 µM | > 100 µM | > 100 µM | > 100 µM | > 100 µM | > 100 µM | > 100 µM | > 100 µM | > 100 µM | > 100 µM | > 100 µM | > 100 µM | > 100 µM | > 100 µM | > 100 µM
8 | O=C1C[C@@H](Sc2ccccc2)C2(OCCO2)[C@H]2ON3CCC[C@@H]3[C@@H]12 | 5.72 µM | 19.8 µM | 29 µM | 11.4 µM | 6.08 µM | 15.9 µM | – | 4.58 µM | 20.8 µM | 6.32 µM | 15.2 µM | 24.3 µM | 34.5 µM | 26.7 µM | 8.94 µM | 11.8 µM | 26.3 µM | 30.5 µM
9 | S=C(N/N=C(/c1ccccc1)c1ccccn1)Nc1ccc(Cl)cc1 | 2.26 µM | 8.55 µM | 20.7 µM | 11.9 µM | 0.543 µM | 9.37 µM | 11.5 µM | 2.81 µM | 10.9 µM | 18.2 µM | 9.01 µM | 7.65 µM | 7.54 µM | 11.3 µM | > 25.9 µM | 7.49 µM | 14 µM | 9.4 µM
10 | Cc1cc(S(=O)(=O)NC2=NC(c3ccccc3)c3ccccc3N2)c(S)cc1Cl (configuration not stated) | > 100 µM | > 100 µM | > 100 µM | > 100 µM | > 100 µM | > 100 µM | > 100 µM | > 100 µM | > 100 µM | > 100 µM | > 100 µM | > 100 µM | > 100 µM | > 100 µM | > 100 µM | > 100 µM | > 100 µM | > 100 µM
11 | O=C(O)c1nc2ccccc2nc1Nc1ccc(F)cc1 | 79.9 µM | 60 µM | > 100 µM | 85.9 µM | 78.8 µM | 63.4 µM | 82.4 µM | > 100 µM | > 100 µM | 76.2 µM | > 100 µM | 77.6 µM | > 100 µM | 58.5 µM | > 100 µM | > 100 µM | > 100 µM | > 100 µM
12 | c1ccc(N=c2sc3ccccc3sc2=Nc2ccccc2)cc1 | > 100 µM | 3.42 µM | 16.7 µM | 9.93 µM | > 100 µM | 4.59 µM | 2.95 µM | – | 3.24 µM | 3.69 µM | 3.03 µM | 2.66 µM | 9.3 µM | 12.5 µM | > 100 µM | 3.43 µM | 9.1 µM | 5.65 µM
13 | Cc1cc(S(=O)(=O)n2ccnc2Oc2ccccc2)c(SSc2cc(Cl)c(C)cc2S(=O)(=O)n2ccnc2Oc2ccccc2)cc1Cl | – | > 100 µM | > 100 µM | > 100 µM | > 100 µM | > 100 µM | > 100 µM | > 100 µM | > 100 µM | > 100 µM | – | > 100 µM | > 100 µM | – | > 100 µM | > 100 µM | > 100 µM | > 100 µM
